In ChEMBL document CHEMBL4049432, “Structure-Guided Discovery of Potent and Selective Inhibitors of ERK1/2 from a Modestly Active and Promiscuous Chemical Start Point” (J Med Chem, 2017):

Assay: Volume of distribution at steady state in dog plasma
Type: ADME, Canis lupus familiaris
Settings: read-out: Vdss

Q: With `Cc1cccc(CN2C(=O)c3cc(-c4nc(Nc5ccnn5C)ncc4C)cn3C[C@H]2C)n1` as the molecule, how does the Vd read?
A: The Vd was 0.9 L/kg.

Assay: Oral bioavailability in dog
Type: ADME, organism-based, Canis lupus familiaris
Settings: in vivo

Q: For `Cc1cccc(CN2C(=O)c3cc(-c4nc(Nc5ccnn5C)ncc4C)cn3C[C@H]2C)n1`, which bioavailability is on record?
A: Its bioavailability is 87%.

Assay: Octanol-aqueous phosphate buffer distribution coefficient, log D of the compound at pH 7.4
Type: physicochemical
Settings: not given

Q: For `COCCN1C(=O)c2cc(-c3ccnc(Nc4ccnn4C)n3)[nH]c2C[C@@H]1C`, which logD is on record?
A: Its logD is 1.8.

Q: For `COCCN1C(=O)c2cc(-c3nc(Nc4ccnn4C)ncc3C)[nH]c2C[C@H]1C`, which logD is on record?
A: Its logD is 2.14.

Q: Which logD does the source give for `Cc1cccc(CN2CCc3[nH]c(-c4ccnc(NC5CCOCC5)n4)cc3C2=O)n1` here?
A: Its logD is 2.4.

Q: With `CN1CCc2[nH]c(-c3ccnc(NC4CCOCC4)n3)cc2C1=O` as the molecule, how does the logD read?
A: The logD was 1.6.

Q: For `O=C1NCCn2cc(-c3ccnc(NC4CCOCC4)n3)cc21`, which logD is on record?
A: The logD was 0.75.

Q: For `COCCN1CCc2[nH]c(-c3ccnc(Nc4ccnn4C)n3)cc2C1=O`, which logD is on record?
A: The logD was 1.4.

Q: With `COCCN1CCc2[nH]c(-c3ccnc(NC4CCOCC4)n3)cc2C1=O` as the molecule, how does the logD read?
A: The logD was 1.6.

Q: With `O=C1c2cc(-c3ccnc(NC4CCOCC4)n3)[nH]c2CCN1[C@H](CO)c1ccccc1` as the molecule, how does the logD read?
A: Its logD is 2.6.

Q: With `Cn1c(-c2ccnc(NC3CCOCC3)n2)cc2c1CCNC2=O` as the molecule, how does the logD read?
A: The logD was 1.3.

Q: Which logD does the source give for `O=C1NCCc2[nH]c(-c3ccnc(NC4CCOCC4)n3)cc21` here?
A: The logD was 1.3.

Q: With `COCCN1CCc2c(cc(-c3ccnc(NC4CCOCC4)n3)n2C)C1=O` as the molecule, how does the logD read?
A: The logD was 1.7.

Q: With `COCCN1C(=O)c2cc(-c3nc(Nc4ccnn4C)ncc3C)cn2C[C@H]1C` as the molecule, how does the logD read?
A: The logD was 1.7.

Q: For `COCCN1C(=O)c2cc(-c3nc(Nc4ccnn4C)ncc3C)[nH]c2C[C@@H]1C`, which logD is on record?
A: Its logD is 2.11.

Q: With `COCCN1C(=O)c2cc(-c3ccnc(Nc4ccnn4C)n3)[nH]c2C[C@H]1C` as the molecule, how does the logD read?
A: Its logD is 1.7.

Q: Which logD does the source give for `COCCN1CCn2cc(-c3nc(Nc4ccnn4C)ncc3C)cc2C1=O` here?
A: The logD was 1.3.

Q: With `O=C1c2cc(-c3ccnc(NC4CCOCC4)n3)[nH]c2CCN1[C@H](CO)c1ccc(F)c(Cl)c1` as the molecule, how does the logD read?
A: The logD was 3.6.

Q: Which logD does the source give for `O=C1c2cc(-c3ccnc(NC4CCOCC4)n3)[nH]c2CCN1Cc1ccccc1` here?
A: Its logD is 3.2.

Q: With `COCCN1C(=O)c2cc(-c3nc(Nc4ccnn4C)ncc3C)cn2C[C@@H]1C` as the molecule, how does the logD read?
A: Its logD is 1.6.

Q: With `O=C1c2cc(-c3ccnc(NC4CCOCC4)n3)[nH]c2CCN1[C@H](CO)c1ccc(Cl)c(F)c1` as the molecule, how does the logD read?
A: Its logD is 3.5.

Q: Which logD does the source give for `Cc1cccc(CN2CCn3cc(-c4nc(Nc5ccnn5C)ncc4C)cc3C2=O)n1` here?
A: Its logD is 2.2.

Q: For `Cn1c(-c2ccnc(NC3CCOCC3)n2)cc2c1CCN(Cc1ccccc1)C2=O`, which logD is on record?
A: Its logD is 3.3.

Q: For `CN1CCN(c2ccc(Nc3nccc(-c4cc5c([nH]4)CCNC5=O)n3)cc2)CC1`, which logD is on record?
A: Its logD is 1.5.

Q: With `Cc1cccc(CN2C(=O)c3cc(-c4ccnc(Nc5ccnn5C)n4)cn3CC2C)n1` (single isomer, unassigned; isomer 2) as the molecule, how does the logD read?
A: Its logD is 2.3.

Assay: Volume of distribution at steady state in rat plasma
Type: ADME
Settings: read-out: Vdss

Q: With `Cc1cccc(CN2C(=O)c3cc(-c4nc(Nc5ccnn5C)ncc4C)cn3C[C@H]2C)n1` as the molecule, how does the Vd read?
A: Its Vd is 1.3 L/kg.

Assay: Oral bioavailability in rat
Type: ADME, organism-based
Settings: in vivo

Q: Which bioavailability does the source give for `Cc1cccc(CN2C(=O)c3cc(-c4nc(Nc5ccnn5C)ncc4C)cn3C[C@H]2C)n1` here?
A: The bioavailability was 31%.
